From ChEMBL document CHEMBL1136246, “Structure activity studies of a novel cytotoxic benzodiazepine” (Bioorg Med Chem Lett, 2003)

Assays:
Ramos [1] = assay: Inhibition of Ramos B cells death in the presence of FK506 (1 uM); assay type: functional, Homo sapiens
Ramos [2] = assay: Lymphotoxic activity against immortalized Ramos B cells in culture; assay type: functional, cell-based; conditions: Homo sapiens
Ramos [3] = assay: Inhibition of Ramos B cells death in the presence of 20 uM methylating phenol (Compound 20); assay type: functional, Homo sapiens

| Structure (SMILES) | Inhibition (Ramos [1]) | EC50 (Ramos [2]) | Inhibition (Ramos [3]) |
| --- | --- | --- | --- |
| CN1C(=O)C(Cc2cccc3ccccc23)N=C(c2ccc(O)cc2)c2cc(Cl)ccc21 (stereo unspecified) | 72% | 5 µM | 67% |
| CN1C(=O)C(Cc2ccc3ccccc3c2)N=C(c2ccc(N=[N+]=[N-])cc2)c2cc(Cl)ccc21 (stereo unspecified) | – | > 80 µM | – |
| CN1C(=O)CN=C(c2ccccc2)c2cc(Cl)ccc21 [DIAZEPAM] | – | > 80 µM | – |
| CN1C(=O)CN=C(c2ccc(Cl)cc2)c2cc(Cl)ccc21 [RO-54864] | – | > 80 µM | – |
| CN1C(=O)C(Cc2cccc(-c3ccccc3)c2)N=C(c2ccc(O)cc2)c2cc(Cl)ccc21 (stereo unspecified) | 77% | 4 µM | 81% |
| Cc1cc(C2=NC(Cc3ccc4ccccc4c3)C(=O)N(C)c3ccc(Cl)cc32)ccc1O (stereo unspecified) | 78% | 3 µM | 87% |
| CN1C(=O)C(Cc2ccc3ccccc3c2)N=C(c2ccc(Cl)cc2)c2cc(Cl)ccc21 (stereo unspecified) | – | > 80 µM | – |
| Cc1ccc(CC2N=C(c3ccc(O)cc3)c3cc(Cl)ccc3N(C)C2=O)cc1C (stereo unspecified) | 78% | 7 µM | 29% |
| CCC(C)N(C)C(=O)c1cc2ccccc2c(-c2ccccc2Cl)n1 (stereo unspecified) [PK-11195] | – | > 80 µM | – |
| CN1C(=O)C(Cc2ccc3ccccc3c2)N=C(c2cccc(O)c2)c2cc(Cl)ccc21 (stereo unspecified) | 70% | 6 µM | 0% |
| Cc1ccc(C)c(CC2N=C(c3ccc(O)cc3)c3cc(Cl)ccc3N(C)C2=O)c1 (stereo unspecified) | 80% | 7 µM | 23% |
| CN1C(=O)C(Cc2ccc(OC(F)(F)F)cc2)N=C(c2ccc(O)cc2)c2cc(Cl)ccc21 (stereo unspecified) | 17% | 30 µM | 0% |
| CN1C(=O)C(Cc2ccccc2)N=C(c2ccc(O)cc2)c2cc(Cl)ccc21 (stereo unspecified) | 4% | 12 µM | 0% |
| CN1C(=O)C(Cc2cc3ccccc3cn2)N=C(c2ccc(O)cc2)c2cc(Cl)ccc21 (stereo unspecified) | 42% | 10 µM | 0% |
| CN1C(=O)C(Cc2ccc3ncccc3c2)N=C(c2ccc(O)cc2)c2cc(Cl)ccc21 (stereo unspecified) | 20% | 13 µM | 0% |
| CN1C(=O)C(Cc2ccc(C(C)(C)C)cc2)N=C(c2ccc(O)cc2)c2cc(Cl)ccc21 (stereo unspecified) | 91% | 3 µM | 55% |
| COc1ccc(C2=NC(Cc3ccc4ccccc4c3)C(=O)N(C)c3ccc(Cl)cc32)cc1 (stereo unspecified) | – | > 80 µM | – |
| CN1C(=O)C(Cc2ccc(-c3ccccc3)cc2)N=C(c2ccc(O)cc2)c2cc(Cl)ccc21 (stereo unspecified) | 74% | 7 µM | 69% |
| CN1C(=O)C(Cc2cccc(O)c2)N=C(c2ccc(O)cc2)c2cc(Cl)ccc21 (stereo unspecified) | 14% | 22 µM | 20% |
| CN1C(=O)C(Cc2ccc(F)c(F)c2)N=C(c2ccc(O)cc2)c2cc(Cl)ccc21 (stereo unspecified) | 59% | 10 µM | 0% |
| CN1C(=O)C(Cc2cnc3ccccc3c2)N=C(c2ccc(O)cc2)c2cc(Cl)ccc21 (stereo unspecified) | 39% | 11 µM | 4% |
